Converted amounts (≈) assume the structure as drawn. The source made the active and inactive calls. No cut-off for these calls is given here.
Assays:
[1] = test system: SF-268; assay: Cytotoxicity against human SF-268 cells assessed as reduction in cell viability at 0.5 to 16 uM measured after 72 hrs by SRB assay; assay type: functional, cell-based; settings: dose 0.5-16 µM
[2] = test system: HepG2; assay: Cytotoxicity against human HepG2 cells assessed as reduction in cell viability at 0.5 to 16 uM measured after 72 hrs by SRB assay; assay type: functional, cell-based; settings: dose 0.5-16 µM
[3] = test system: MCF7; assay: Cytotoxicity against human MCF7 cells assessed as reduction in cell viability at 0.5 to 16 uM measured after 72 hrs by SRB assay; assay type: functional, cell-based; settings: dose 0.5-16 µM
[4] = test system: Candida albicans; assay: Antifungal activity against Candida albicans SC5314 assessed as fungal growth inhibition incubated for 16 to 18 hrs by broth microdilution method; assay type: functional; settings: time 16-18 hrs

`CCC(C)C(=O)O[C@@H]1c2c(cc(O)c3c2C(=O)c2cccc(O)c2-3)C(=O)C(C)(Cl)[C@H]1O` (stereo partly specified) was tested, and the Activity [1] was “inactive”, the Activity [2] was “inactive” and the Activity [3] was “inactive”.

For `CC(=O)/C=C/c1c2c(c3c4c1c(O)nn4[C@@H]1c4c(cc(O)c5c4C(=O)c4cccc(O)c4-5)C(=O)[C@](C)(O3)[C@H]1O)-c1c(O)cccc1C2=O`, the Activity [1] was “inactive”, the Activity [2] was “inactive” and the Activity [3] was “inactive”.

`CO[C@@H]1c2c(cc(O)c3c2C(=O)c2cccc(O)c2-3)C(=O)C(C)(Cl)[C@H]1O` (stereo partly specified) was tested, and the Activity [1] was “inactive”, the Activity [2] was “inactive” and the MIC [4] was 100 µM (≈ 37.5 µg/mL). The Activity [3] was “inactive”.

In the case of `C[C@]12O[C@H]1[C@H](n1oc(=O)c3ccccc31)c1c(cc(O)c3c1C(=O)c1cccc(O)c1-3)C2=O`, the Activity [1] was “inactive”, the Activity [2] was “inactive” and the Activity [3] was “inactive”.

In the case of `CC1(Nc2ccccc2C(=O)O)C(=O)c2cc(O)c3c(c2[C@@H](O)[C@@H]1O)C(=O)c1cccc(O)c1-3` (stereo partly specified), the Activity [1] was “inactive”, the Activity [2] was “inactive” and the MIC [4] was 100 µM (≈ 46.1 µg/mL). For the same molecule, the Activity [3] was “inactive”.

`C[C@]12O[C@H]1[C@H](Nc1ccccc1C(=O)O)c1c(cc(O)c3c1C(=O)c1cccc(O)c1-3)C2=O` was tested, and the Activity [1] was “inactive”, the Activity [2] was “inactive” and the MIC [4] was 100 µM (≈ 44.3 µg/mL). The Activity [3] was “inactive”.
